# Measured values published in patent US4214093A, “Amino- or guanidino-1,2,3,4-tetrahydro-1-naphthoic esters” (Torii & Co., Ltd., priority 1977, dated 1980).
# Experiments:
# Human Cl Esterase = molecular target: T1, Human Cl Esterase (Homo sapiens, UniProt P09871); test: Inhibitory effect on ester-hydrolyzing activity of human Cl esterase (ATEe substrate); type: biochemical; conditions: in vitro, ATEe, pH 7.4; Table 4 bracketed value; read-out: Cl-esterase ID50
# T1 sequence (P09871 438-688 limits assumed): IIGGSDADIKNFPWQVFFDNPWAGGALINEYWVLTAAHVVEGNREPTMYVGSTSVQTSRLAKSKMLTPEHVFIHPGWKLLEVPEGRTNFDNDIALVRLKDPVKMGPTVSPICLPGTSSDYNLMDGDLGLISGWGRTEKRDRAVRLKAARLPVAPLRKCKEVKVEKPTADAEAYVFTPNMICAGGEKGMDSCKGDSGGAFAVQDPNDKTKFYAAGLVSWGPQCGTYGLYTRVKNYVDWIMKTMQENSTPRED
# T1 sequence (P09871 16-437 partner limits assumed): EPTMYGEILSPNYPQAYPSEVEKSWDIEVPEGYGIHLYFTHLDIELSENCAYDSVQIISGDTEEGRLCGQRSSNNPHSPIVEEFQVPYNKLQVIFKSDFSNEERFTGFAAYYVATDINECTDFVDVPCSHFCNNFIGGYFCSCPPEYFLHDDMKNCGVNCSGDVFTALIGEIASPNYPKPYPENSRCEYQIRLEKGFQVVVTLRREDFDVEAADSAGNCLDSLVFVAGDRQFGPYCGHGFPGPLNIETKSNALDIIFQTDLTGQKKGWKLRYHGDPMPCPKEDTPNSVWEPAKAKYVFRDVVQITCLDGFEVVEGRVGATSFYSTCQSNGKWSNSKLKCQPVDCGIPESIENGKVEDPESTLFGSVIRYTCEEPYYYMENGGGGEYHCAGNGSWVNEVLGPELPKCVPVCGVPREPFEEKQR
# Human Plasma Kallikrein = Human Plasma Kallikrein (Homo sapiens, UniProt P03952); test: Inhibitory effect on ester-hydrolyzing activity of human plasma kallikrein (TAMe substrate); type: biochemical; conditions: in vitro, TAMe
# Description: (§1) The enzyme-inhibitory activities in vitro of the compounds of this invention were measured by the following procedure according to the method of M. Muramatsu et al. [[…]. […] After the incubation, 1.5 ml of 2 M alkaline hydroxylamine was added and thoroughly mixed, and allowed to stand at room temperature for 15 minutes.
# [1] = Acute toxicity (LD50) by intraperitoneal administration in mice; conditions: mouse, in vivo, ip
# Trypsin = molecular target: T2, Trypsin (Bos taurus, UniProt P00760); test: Inhibitory effect on ester-hydrolyzing activity of trypsin (TAMe substrate); type: biochemical; conditions: in vitro, TAMe; for IC50: pH 8.6, 37° C., Table 4 bracketed value, read-out: Trypsin ID50
# T2 sequence (P00760 24-246): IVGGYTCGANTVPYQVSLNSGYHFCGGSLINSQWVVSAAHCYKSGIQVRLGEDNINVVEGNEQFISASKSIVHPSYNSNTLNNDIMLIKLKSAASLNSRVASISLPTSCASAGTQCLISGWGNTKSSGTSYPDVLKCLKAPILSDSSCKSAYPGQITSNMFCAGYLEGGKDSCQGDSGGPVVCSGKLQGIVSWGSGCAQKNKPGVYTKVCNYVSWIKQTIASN
# Description: as §1
# Human Plasmin = Human Plasmin (Homo sapiens, UniProt P00747); test: Inhibitory effect on ester-hydrolyzing activity of human plasmin (TAMe substrate); type: biochemical; conditions: in vitro, TAMe; for IC50: Table 4 bracketed value, read-out: Plasmin ID50
# Description: as §1, with “minutes. […] It was measured by using 0.1 ml of plasmin (generated by activation of plasminogen with streptokinase) and TAMe as substrate following the method described in (1).” for “minutes.”
# Bovine Thrombin = Bovine Thrombin (Bos taurus, UniProt P00735); test: Inhibitory effect on ester-hydrolyzing activity of bovine thrombin (TAMe substrate); type: biochemical
# Description: The enzyme-inhibitory activities in vitro of the compounds of this invention were measured by the following procedure according to the method of M. Muramatsu et al. [M. Muramatsu, T. Onishi, S. Makino, Y. Hayashi and S. Fujii: J. Biochem., 58, 214 (1965)]
# To 0.1 ml of trypsin (5 μg/ml) were added 0.5 ml of 0.1 M borate buffer solution (pH 8.6) containing 10 mM CaCl2, and 0.1 ml of a varying concentration of an inhibitor solution, and preincubation was carried out at 37° C. for 5 minutes. Then, 10 μmoles of the substrate, TAMe (tosylarginine methyl ester), was added, and incubation was preformed at 37° C. for 30 minutes.
# After the incubation, 1.5 ml of 2 M alkaline hydroxylamine was added and thoroughly mixed, and allowed to stand at room temperature for 15 minutes. Then, 1.0 ml of each of 18% trichloroacetic acid, 4 N HCl and 10% FeCl3 was added and thoroughly mixed. If necessary, the mixture was centrifuged at 3,000 rpm for 10 minutes, and the absorbance of the supernatant was measured at 530 nm.
# It was measured by using 0.4 ml of bovine thrombin […], 0.02 M sodium phosphate buffer solution (pH 7.4) and TAMe as substrate following the method described in (1).
# [2] = tested on: clotting activity of thrombin; test: Inhibitory activity on plasma clotting (rabbit platelet poor plasma, thrombin-induced); type: biochemical
# Description: Blood was drawn from carotid artery of an ether anesthetized rabbit with 1/10 volume of 3.8% sodium citrate. Platelet poor plasma (PPP) was prepared from citrated blood which was centrifuged at 3,000 r.p.m. for 15 minutes at 4° C. PPP, 0.9 ml, was taken into cell, 10μ of a compound solution was added and incubated at 37° C. for 10 minutes. […] Compounds were dissolved in distilled water or 50% dimethyl sulfoxide (0.5% final concentration).
# thrombin = test: Inhibitory activity on thrombus formation: protection from lethal thrombin injection in mice; type: in vivo, mice (ddY strain); conditions: 10 minutes before thrombin 300 NIH units/kg i.v., No. 91 in 2.5% gum arabic
# Description: White male mice (ddY strain), 4 weeks age and weighing 18-27 g, were used throughout the experiments. […] The intravenous injection of 300 NIH units/kg of thrombin over 30 seconds into mice was lethal to all animals. The compounds were intraperitoneally administered in doses of 1, 10, and 100 mg/kg in saline unless otherwise described.
# Compounds were intraperitoneally administered 10 minutes before thrombin injection. Compound No. 91 was dissolved in 2.5% gum arabic.
# Sequence of Human Plasmin (P00747 581-810 limits assumed): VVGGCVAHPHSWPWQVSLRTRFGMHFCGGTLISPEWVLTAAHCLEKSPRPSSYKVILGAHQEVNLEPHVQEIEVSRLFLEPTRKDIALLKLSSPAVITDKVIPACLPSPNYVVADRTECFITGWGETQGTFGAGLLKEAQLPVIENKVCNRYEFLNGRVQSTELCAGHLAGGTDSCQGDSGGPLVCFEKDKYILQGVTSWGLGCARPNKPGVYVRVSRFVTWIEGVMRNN
# Sequence of Human Plasmin (P00747 97-580 partner limits assumed): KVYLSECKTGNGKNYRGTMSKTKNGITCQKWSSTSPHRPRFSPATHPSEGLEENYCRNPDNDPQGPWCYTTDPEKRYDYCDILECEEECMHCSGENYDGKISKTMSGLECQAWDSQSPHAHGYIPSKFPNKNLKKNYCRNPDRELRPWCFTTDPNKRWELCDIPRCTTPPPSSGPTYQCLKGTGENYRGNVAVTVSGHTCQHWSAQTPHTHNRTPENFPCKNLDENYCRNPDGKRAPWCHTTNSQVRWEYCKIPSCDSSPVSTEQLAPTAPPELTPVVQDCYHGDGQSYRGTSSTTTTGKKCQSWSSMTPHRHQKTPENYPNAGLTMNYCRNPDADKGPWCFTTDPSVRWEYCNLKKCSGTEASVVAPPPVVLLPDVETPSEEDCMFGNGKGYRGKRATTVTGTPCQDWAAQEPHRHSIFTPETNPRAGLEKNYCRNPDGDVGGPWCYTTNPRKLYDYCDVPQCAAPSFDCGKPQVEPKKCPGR
# Sequence of Human Plasma Kallikrein (P03952 391-638 limits assumed): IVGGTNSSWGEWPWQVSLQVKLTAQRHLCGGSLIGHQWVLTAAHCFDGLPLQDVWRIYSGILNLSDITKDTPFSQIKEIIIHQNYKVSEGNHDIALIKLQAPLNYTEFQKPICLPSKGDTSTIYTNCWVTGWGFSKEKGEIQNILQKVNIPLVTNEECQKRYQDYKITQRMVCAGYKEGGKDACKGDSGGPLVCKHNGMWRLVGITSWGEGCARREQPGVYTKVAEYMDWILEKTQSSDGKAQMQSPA
# Sequence of Human Plasma Kallikrein (P03952 20-390 partner limits assumed): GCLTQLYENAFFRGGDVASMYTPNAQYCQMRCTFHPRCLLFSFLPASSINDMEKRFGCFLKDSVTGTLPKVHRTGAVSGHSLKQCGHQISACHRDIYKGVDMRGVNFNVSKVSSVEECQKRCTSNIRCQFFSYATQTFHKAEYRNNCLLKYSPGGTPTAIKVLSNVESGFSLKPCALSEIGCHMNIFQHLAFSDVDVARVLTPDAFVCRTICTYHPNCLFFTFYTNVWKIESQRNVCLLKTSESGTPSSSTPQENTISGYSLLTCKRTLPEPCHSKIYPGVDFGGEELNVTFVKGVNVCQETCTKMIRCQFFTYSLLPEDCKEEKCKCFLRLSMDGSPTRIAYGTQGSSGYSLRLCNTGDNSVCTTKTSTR
Compound,IC50 (Human Cl Esterase) [µM],LD50 [1] [mg/kg],IC50 (Trypsin) [µM],IC50 (Human Plasmin) [µM],IC50 (Bovine Thrombin) [µM],% protective (thrombin; 1 mg/kg i.p.) [%],Survived / Tested (thrombin; 1 mg/kg i.p.),% protective (thrombin; 10 mg/kg i.p.) [%],Survived / Tested (thrombin; 10 mg/kg i.p.),% protective (thrombin; 100 mg/kg i.p.) [%],Survived / Tested (thrombin; 100 mg/kg i.p.),further results
N=C(N)Nc1cccc2c1CCCC2C(=O)Oc1ccc(Cl)cc1 (centres unmarked) [Compound 111],680,333,,,,,,,,,,"inhibition at 1000 µM (Human Plasma Kallikrein; at 10^-3 M, read-out: Kallikrein percent inhibition): < 3.2%; inhibition at 1000 µM (Trypsin; at 10^-3 M, read-out: Trypsin percent inhibition): 19%; inhibition at 1000 µM (Human Plasmin; at 10^-3 M, read-out: Plasmin percent inhibition): < 3.2%; inhibition at 1000 µM (Bovine Thrombin; at 10^-3 M, in vitro, TAMe, read-out: Thrombin percent inhibition): 18.6%"
COC(=O)c1ccc(OC(=O)C2CCCc3ccc(NC(=N)N)cc32)cc1 (centres unmarked) [Compound 144],310,192,14,45,19,,,,,,,"Percent inhibition of clotting activity ([2]; 3 × 10^-4 M, DMSO control): 57.3%; Percent inhibition of clotting activity ([2]; 3 × 10^-5 M, DMSO control): 1.7%; Percent inhibition of clotting activity ([2]; 10^-3 M, DMSO control): 98.1%; Percent inhibition of clotting activity ([2]; 10^-4 M, DMSO control): 58.0%; Percent inhibition of clotting activity ([2]; 10^-5 M, DMSO control): -3.6%"
COC(=O)c1ccc(OC(=O)C2CCCc3c(NC(=N)N)cccc32)cc1 (centres unmarked) [Compound 118],780,192,1000,1000,80,20,2/10,30,3/10,40,4/10,
CCOC(=O)c1ccc(OC(=O)C2CCCc3ccc(NC(=N)N)cc32)cc1 (centres unmarked) [Compound 148],260,92,150,140,6,0,0/10,30,3/10,90,9/10,"Percent inhibition of clotting activity ([2]; 3 × 10^-4 M, H2O control): 55.6%; Percent inhibition of clotting activity ([2]; 3 × 10^-5 M, H2O control): 20.0%; Percent inhibition of clotting activity ([2]; 10^-3 M, H2O control): 100%; Percent inhibition of clotting activity ([2]; 10^-4 M, H2O control): 6.7%; Percent inhibition of clotting activity ([2]; 10^-5 M, H2O control): -2.2%; IC50 (Human Plasma Kallikrein; Table 4 bracketed value, read-out: Kallikrein ID50): 170 µM"
